{
  "source": "patent US20050208496A1",
  "about": "“Methods of testing for bronchial asthma or chronic obstructive pulmonary disease” (Genox Research, Inc., priority 2002, published 2005)",
  "tested_on": "Balb/c mice",
  "assay": "OVA antigen-exposed bronchial hypersensitivity mouse model, respiratory constriction caused by acetylcholine",
  "assay_type": "in vivo",
  "settings": "5 mg/kg orally",
  "experimental": "50 μg OVA and 1 mg aluminum hydroxide (an adjuvant) were injected into the peritoneal cavity of Balb/c mice (male, seven-week old), and after 10 days the mice was sensitized with OVA under the same conditions. Then, after 10 days, 1% OVA was given by inhalation using the Ultra-nebulizer model UN701 (Azwell (Co., Ltd.)) for 30 minutes every four days three times in total. Enhanced bronchial hypersensitivity was monitored by detecting the respiratory constriction caused by acetylcholine (6.25-2000 μg/kg) using an artificial respirator (model 131, New England Medical Instruments Inc.) 24 hours after the final antigen inhalation (Nagai H. et al, Int Arch Allergy Immunol; 108: 189-195, 1995). Bronchial hypersensitivity can be induced by this treatment.",
  "data": [
    {"smiles": "C[C@]12C=CC(=O)C=C1CC[C@@H]1[C@@H]2[C@@H](O)C[C@@]2(C)[C@H]1CC[C@]2(O)C(=O)CO", "note": "[Prednisolone]", "values": [
      {"measurement": "development of bronchial hypersensitivity", "value": "suppressed"}
    ]}
  ]
}
